Converted amounts (≈) assume the structure as drawn. Like-named read-outs stand apart in the source and are kept apart here.
How the values were obtained:
[1] = tested on: G-401 cells; experiment: Cell proliferation inhibition experiment using G-401 cells; format: cell-based
Experimental: G-401 cells (derived from malignant rhabdoid tumor) were obtained from the American Type Culture Collection (ATCC). G-401 cells were cultured in McCoy's 5A medium containing 10% fetal bovine serum and 1% penicillin/streptomycin under conditions of 37° C. and 5% CO2.
500 cells per well were seeded in a 384-well plate. One day after seeding, Examples 1 to 35 were added so that the final concentration of DMSO was 0.1%, and the cells were cultured for 3 days. After the culture was completed, the cell viability was measured using CellTiter-Glo Luminescent Cell Viability Assay (Promega, G7570).

[2] = target: recombinant p300 (Homo sapiens (Human), UniProt Q09472); experiment: HAT activity inhibition experiment (SensoLyte HAT(p300) Assay Kit); format: biochemical; conditions: recombinant p300, acetyl CoA, histone H3 peptide
Experimental: The HAT activity inhibitory ability of HAT inhibitors was evaluated using SensoLyte HAT(p300) Assay Kit (ANASPEC, AS-72172). Specifically, 7.5 μL of the compound of Examples […] diluted with assay buffer was added to 7.5 μL of recombinant p300 solution diluted 10 times with assay buffer, and the mixture was incubated at room temperature for 10 minutes. 7.5 μL of acetyl CoA solution diluted 10 times with assay buffer and 15 μL of histone H3 peptide diluted 10 times with assay buffer were added thereto, and the mixture was incubated at 37° C. for 30 minutes. 37.5 μL of Stop Solution was added to stop the reaction. 75 μL of p300 Developer solution diluted 50 times with assay buffer was added, and the mixture was incubated at room temperature for 30 minutes under light-shielded conditions. The fluorescence at 513 nm when irradiated with 389 nm excitation light was measured using a multiplate reader.

[3] = tested on: G-401 xenograft; experiment: Drug efficacy evaluation by intravenous administration using G-401 xenograft mice model; format: in vivo; conditions: G-401 xenograft model
Experimental: G-401 cells (ATCC) were intradermally transplanted into 4-7-week-old BALB/cAnNCrj-nu/nu mice (CAnN.Cg-Foxnl/CrlCrlj, Jackson Laboratory Japan) at 5×10^5 cells/mouse. After confirming the engraftment of G-401 cells 10-40 days after transplantation, the test compound suspended in a solvent such as 10 mmol/L glycine buffer solution (pH 2.0) was administered via the tail vein at least once a week at a dose of 0.015-20 mg/kg. The tumor volume was measured over time from the start of administration, and the effect of tumor volume reduction by administration of the test compound was evaluated. The tumor volume can be calculated from the following equation using the minor axis and major axis of the tumor measured with an electronic caliper (Mitutoyo).
A control administration group administered with only a solvent such as 10 mmol/L glycine buffer solution (pH 2.0) and a test compound administration group were compared, and the antitumor effect was evaluated by calculating T/C from the following equation.

[4] = Solubility test; format: physicochemical; conditions: for solubility: aqueous buffer, thermodynamic from solid
Experimental: The solubility was measured for Examples 7, 10, 20, 23, 24, and 30 to 34, Comparative Example 1, and Comparative Example 2. The test compound was added to 10 mmol/L glycine buffer (pH 2.0) and 10 mmol/L citrate buffer (pH 3.0), and the mixture was stored in a thermostatic chamber at 5° C. After standing overnight, the mixture was filtered through a membrane filter, and the concentration of the filtrate was measured by HPLC.
The HPLC measurement conditions are as follows.
HPLC conditions • Column: Acquity UPLC BEH C18, 1.7 μm, 50×2.1 mm • Column temperature: 40° C. • Mobile phase: A: 0.1% trifluoroacetic acid-containing water • B: acetonitrile • A/B (min): 95/5 (0)→0/100 (3.5)→0/100 (4)→95/5 (4.01)→95/5 (5) • Flow rate: 0.8 mL/min • Detection: UV visible detector, measurement wavelength 254 nm • Injection volume: 5 μL or • Column: Acquity UPLC BEH C18, 1.7 μm, 50×2.1 mm • Column temperature: 40° C. • Mobile phase: A: 0.1% trifluoroacetic acid-containing water • B: acetonitrile • A/B (min): • 80/20 (0)→40/60 (3.0)→0/100 (3.5)→0/100 (4)→80/20 (4.01)→80/20 (5) • Flow rate: 0.8 mL/min • Detection: UV visible detector, measurement wavelength 254 nm • Injection volume: 2 μL or • Column: Acquity UPLC BEH C18, 1.7 μm, 50×2.1 mm • Column temperature: 40° C. • Mobile phase: A: 0.1% trifluoroacetic acid-containing water • B: acetonitrile • A/B (min): • 80/20 (0)→40/60 (3.0)→0/100 (3.5)→0/100 (4)→100/0 (4.01)→100/0 (5) • Flow rate: 0.8 mL/min • Detection: UV visible detector, measurement wavelength 254 nm • Injection volume: 3 μL

[5] = Pharmacokinetic study in mice; format: in vivo; conditions: for BA: oral 10 mg/kg vs intravenous 1 mg/kg
Experimental: The test compound was administered to 7-week-old female BALE/c (BALB/cAnN CrlCrlj) mice intravenously (dosage: 1 mg/kg) in a 50% PEG solution (0.01 mol/L HCl) or orally (dosage: 10 mg/kg) in a 0.5% methylcellulose aqueous solution, and blood was collected at the following times: • Intravenous administration: 5 min, 15 min, 30 min, 1 hr, 2 hr, 4 hr, 6 hr, and 24 hr after administration • Oral administration: 15 min, 30 min, 1 hr, 2 hr, 4 hr, 6 hr, and 24 hr after administration
The collected blood was centrifuged at 3000 rpm×10 min using a refrigerated centrifuge set at 4° C., and the obtained plasma was measured by LC-MS. A calibration curve was prepared from the value (peak ratio) obtained by dividing the peak area of the test substance by the peak area of the internal standard substance in MS and the concentration of the plasma calibration curve sample. The concentration in the sample was calculated from the peak ratio and the calibration curve of each sample.

[6] = target: hDAT (Homo sapiens (Human), UniProt Q01959); experiment: Dopamine receptor inhibitory activity evaluation (binding assay, CHO-S/hDAT membranes); conditions: for Inhibitory effect on dopamine receptors (in words): off-target
Experimental: The binding evaluation assay was outsourced to Eurofins. Specifically, CHO—S/hDAT cells were homogenized in an incubation buffer consisting of 50 mmol/L Tris-HCl, pH 7.4, 100 mmol/L NaCl, 1 μmol/L Leupeptin, and 10 μmol/L PMSF. The membrane pellet obtained by centrifugation was resuspended in the incubation buffer to prepare a membrane preparation. The test compound (1-10 μmol/L DMSO solution), the membrane preparation, and 0.15 nmol/L […] were mixed and incubated at 4° C. for 180 minutes. The cell membrane-[^125I]RTI-55 complex was bound to a GF/B filter mat by vacuum filtration and washed with 50 mmol/L Tris-HCl, pH 7.4. The effect on the receptor was assessed by measuring radioactivity using a scintillation counter.

[7] = target: hSERT (Homo sapiens (Human), UniProt P31645); experiment: Serotonin receptor inhibitory activity evaluation (binding assay, HEK293/hSERT membranes); conditions: for Inhibitory effect on serotonin receptors (in words): off-target
Experimental: The binding evaluation assay was outsourced to Eurofins. Specifically, HEK293/hSERT cells were homogenized in a buffer consisting of 100 mmol/L NaCl, 1 μmol/L Leupeptin, 10 μmol/L PMSF, and 50 mmol/L Tris-HCl (pH7.4). The membrane pellet obtained by centrifugation was resuspended in an incubation buffer consisting of 50 mmol/L Tris-HCl (pH 7.4), 120 mmol/L NaCl, and 5 mmol/L KCl to prepare a membrane preparation. The test compound (1-10 μmol/L DMSO solution), the membrane preparation, and 0.4 nmol/L [^3H]Paroxetin were mixed and incubated at 25° C. for 60 minutes. The cell membrane-[^3H]Paroxetin complex was bound to a GF/B filter mat by vacuum filtration and washed with 50 mmol/L Tris-HCl (pH 7.4). The effect on the receptor was assessed by measuring radioactivity using a scintillation counter.

Chain of hSERT (P31645 whole entry): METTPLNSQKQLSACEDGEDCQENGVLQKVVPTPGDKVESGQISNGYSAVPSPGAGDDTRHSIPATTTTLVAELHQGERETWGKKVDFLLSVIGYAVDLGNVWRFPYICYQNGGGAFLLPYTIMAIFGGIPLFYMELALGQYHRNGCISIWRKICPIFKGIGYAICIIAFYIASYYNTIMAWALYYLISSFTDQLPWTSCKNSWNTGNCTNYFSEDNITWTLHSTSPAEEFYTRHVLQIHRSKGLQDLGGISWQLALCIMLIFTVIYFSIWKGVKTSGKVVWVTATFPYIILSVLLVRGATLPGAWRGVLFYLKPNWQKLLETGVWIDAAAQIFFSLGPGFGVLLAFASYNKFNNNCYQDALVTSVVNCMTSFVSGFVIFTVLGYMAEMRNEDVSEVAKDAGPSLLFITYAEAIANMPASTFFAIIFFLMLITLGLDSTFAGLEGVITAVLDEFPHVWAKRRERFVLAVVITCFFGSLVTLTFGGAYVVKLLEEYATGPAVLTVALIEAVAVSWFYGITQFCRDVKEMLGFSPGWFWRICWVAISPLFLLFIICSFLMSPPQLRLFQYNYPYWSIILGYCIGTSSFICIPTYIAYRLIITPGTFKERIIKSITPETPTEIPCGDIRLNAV
Chain of hDAT (Q01959 whole entry): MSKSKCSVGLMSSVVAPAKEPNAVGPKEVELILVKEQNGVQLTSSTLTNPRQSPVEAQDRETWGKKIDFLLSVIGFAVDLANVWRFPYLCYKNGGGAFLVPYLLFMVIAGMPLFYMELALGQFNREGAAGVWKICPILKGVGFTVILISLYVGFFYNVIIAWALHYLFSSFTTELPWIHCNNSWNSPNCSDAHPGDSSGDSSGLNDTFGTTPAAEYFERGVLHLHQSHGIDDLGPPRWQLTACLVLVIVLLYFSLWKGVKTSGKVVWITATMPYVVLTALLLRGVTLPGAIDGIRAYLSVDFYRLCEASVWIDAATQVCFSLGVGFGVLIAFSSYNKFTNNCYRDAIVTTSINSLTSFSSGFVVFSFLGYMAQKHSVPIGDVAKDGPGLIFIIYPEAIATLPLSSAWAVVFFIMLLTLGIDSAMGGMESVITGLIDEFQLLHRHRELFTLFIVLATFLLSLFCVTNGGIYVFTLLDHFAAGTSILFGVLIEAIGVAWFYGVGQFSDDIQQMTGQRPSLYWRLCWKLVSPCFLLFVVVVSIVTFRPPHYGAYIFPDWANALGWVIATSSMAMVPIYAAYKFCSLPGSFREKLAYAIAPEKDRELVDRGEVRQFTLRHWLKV
Chain of recombinant p300 (Q09472 whole entry): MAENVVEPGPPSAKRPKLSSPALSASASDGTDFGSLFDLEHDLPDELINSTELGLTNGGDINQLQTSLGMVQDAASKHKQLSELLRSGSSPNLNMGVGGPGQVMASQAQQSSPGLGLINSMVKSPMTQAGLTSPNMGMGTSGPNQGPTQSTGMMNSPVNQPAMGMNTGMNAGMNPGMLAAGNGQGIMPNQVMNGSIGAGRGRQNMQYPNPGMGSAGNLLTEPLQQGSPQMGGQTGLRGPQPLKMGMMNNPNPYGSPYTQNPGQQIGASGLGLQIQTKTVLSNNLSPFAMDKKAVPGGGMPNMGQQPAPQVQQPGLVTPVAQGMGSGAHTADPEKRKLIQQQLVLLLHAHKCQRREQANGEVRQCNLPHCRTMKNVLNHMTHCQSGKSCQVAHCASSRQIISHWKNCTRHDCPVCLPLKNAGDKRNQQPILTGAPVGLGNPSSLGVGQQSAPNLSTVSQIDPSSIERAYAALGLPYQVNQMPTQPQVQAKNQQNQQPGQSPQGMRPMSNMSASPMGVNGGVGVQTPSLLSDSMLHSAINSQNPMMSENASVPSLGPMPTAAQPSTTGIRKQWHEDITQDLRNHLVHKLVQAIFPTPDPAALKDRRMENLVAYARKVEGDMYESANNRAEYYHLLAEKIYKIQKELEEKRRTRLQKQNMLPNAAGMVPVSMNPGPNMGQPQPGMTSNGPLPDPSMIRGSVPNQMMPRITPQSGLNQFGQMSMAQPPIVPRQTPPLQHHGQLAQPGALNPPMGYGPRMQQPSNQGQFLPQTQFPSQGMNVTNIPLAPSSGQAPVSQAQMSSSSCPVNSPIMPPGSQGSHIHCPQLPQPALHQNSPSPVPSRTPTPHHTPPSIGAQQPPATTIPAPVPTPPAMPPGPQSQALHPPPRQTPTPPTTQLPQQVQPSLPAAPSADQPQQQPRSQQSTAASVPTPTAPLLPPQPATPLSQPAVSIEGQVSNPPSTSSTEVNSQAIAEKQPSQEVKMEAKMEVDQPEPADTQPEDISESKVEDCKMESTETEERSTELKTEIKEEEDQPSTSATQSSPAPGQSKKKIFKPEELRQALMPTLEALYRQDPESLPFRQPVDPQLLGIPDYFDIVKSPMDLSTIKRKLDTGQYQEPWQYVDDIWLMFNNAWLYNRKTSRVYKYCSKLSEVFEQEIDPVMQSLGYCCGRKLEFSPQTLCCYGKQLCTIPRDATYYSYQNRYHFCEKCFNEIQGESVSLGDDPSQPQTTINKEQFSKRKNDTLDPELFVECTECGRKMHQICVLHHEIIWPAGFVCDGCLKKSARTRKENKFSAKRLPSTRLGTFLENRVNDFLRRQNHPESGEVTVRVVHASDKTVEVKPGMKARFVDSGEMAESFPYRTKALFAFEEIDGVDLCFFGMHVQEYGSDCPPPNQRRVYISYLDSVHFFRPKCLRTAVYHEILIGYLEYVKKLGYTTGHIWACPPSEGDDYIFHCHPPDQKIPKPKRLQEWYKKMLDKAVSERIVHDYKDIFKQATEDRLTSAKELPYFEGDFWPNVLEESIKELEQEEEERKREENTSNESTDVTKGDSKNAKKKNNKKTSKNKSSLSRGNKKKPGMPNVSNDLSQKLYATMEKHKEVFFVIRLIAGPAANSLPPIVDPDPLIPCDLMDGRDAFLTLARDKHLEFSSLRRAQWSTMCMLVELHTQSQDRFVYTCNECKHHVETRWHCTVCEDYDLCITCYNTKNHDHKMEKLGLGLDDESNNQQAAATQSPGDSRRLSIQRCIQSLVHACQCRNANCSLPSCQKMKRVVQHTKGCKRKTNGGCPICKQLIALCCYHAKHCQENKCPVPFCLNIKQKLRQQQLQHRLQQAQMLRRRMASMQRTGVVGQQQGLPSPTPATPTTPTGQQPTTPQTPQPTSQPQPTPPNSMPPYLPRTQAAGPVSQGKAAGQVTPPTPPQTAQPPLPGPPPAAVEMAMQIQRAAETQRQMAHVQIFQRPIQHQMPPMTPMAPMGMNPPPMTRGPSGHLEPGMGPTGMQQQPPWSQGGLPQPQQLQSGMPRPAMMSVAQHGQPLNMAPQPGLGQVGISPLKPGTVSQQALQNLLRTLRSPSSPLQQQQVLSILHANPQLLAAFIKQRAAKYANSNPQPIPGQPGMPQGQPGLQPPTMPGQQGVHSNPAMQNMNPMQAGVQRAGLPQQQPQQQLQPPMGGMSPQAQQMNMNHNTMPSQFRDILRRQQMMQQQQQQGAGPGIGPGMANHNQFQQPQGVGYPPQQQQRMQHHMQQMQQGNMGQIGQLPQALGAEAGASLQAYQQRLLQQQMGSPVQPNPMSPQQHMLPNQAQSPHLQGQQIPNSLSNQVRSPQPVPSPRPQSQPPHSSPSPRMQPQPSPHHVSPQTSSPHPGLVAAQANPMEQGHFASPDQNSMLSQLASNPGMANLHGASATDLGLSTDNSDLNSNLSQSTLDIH

CN1CC(N(Cc2ccc(F)cc2)C(=O)CN2C(=O)N[C@]3(C[C@@H](F)c4cc(-c5cnn(C6CCOCC6)c5)ccc43)C2=O)(C(F)(F)F)C1 [Example 19, 2-{(1′S,3′R)-3′-fluoro-5′-[1-(oxan-4-yl)-1H-pyrazol-4-yl]-2,5-dioxo-2′,3′-dihydrospiro[imidazolidine-4,1′-inden]-1-yl}-N-[(4-fluorophenyl)methyl]-N-[1-methyl-3-(trifluoromethyl)azetidin-3-yl]acetamide]
Cell proliferation inhibitory effect on G-401 cells (in words) [1]: strong cell proliferation inhibitory effect

O=C1N[C@]2(C[C@@H](F)c3cc(-c4cnn(C5CN(C6COC6)C5)c4)ccc32)C(=O)N1CC(=O)N(Cc1ccc(F)cn1)C1(C(F)(F)F)CC(F)(F)C1 [Example 9, N-[3,3-difluoro-1-(trifluoromethyl)cyclobutyl]-2-[(1′S,3′R)-3′-fluoro-5′-{1-[1-(oxetan-3-yl)azetidin-3-yl]-1H-pyrazol-4-yl}-2,5-dioxo-2′,3′-dihydrospiro[imidazolidine-4,1′-inden]-1-yl]-N-[(5-fluoropyridin-2-yl)methyl]acetamide]
IC50 [2]: 0.6 nM

CNC(=O)Cn1cc(-c2ccc3c(c2)[C@H](F)C[C@]32NC(=O)N(CC(=O)N(Cc3ccc(F)cc3)[C@@H](C)C(F)(F)F)C2=O)cn1 [Comparative Example 1, reference compound]
Antitumor effect, intravenous administration (in words) [3]: no antitumor effect

O=C1N[C@]2(CCc3cc(-c4cnn(C5CN(C6COC6)C5)c4)ccc32)C(=O)N1CC(=O)N(Cc1ccc(F)cn1)C1(C(F)(F)F)CC(F)(F)C1 [Example 8, N-[3,3-difluoro-1-(trifluoromethyl)cyclobutyl]-N-[(5-fluoropyridin-2-yl)methyl]-2-[(1′S)-5′-{-[1-(oxetan-3-yl)azetidin-3-yl]-1H-pyrazol-4-yl}-2,5-dioxo-2′,3′-dihydrospiro[imidazolidine-4,1′-inden]-1-yl]acetamide]
IC50 [2]: 17.2 nM

CN1CC(N(Cc2ccc(F)cn2)C(=O)CN2C(=O)N[C@]3(C[C@@H](F)c4cc(-c5cnn(C6COC6)c5)ccc43)C2=O)(C(F)(F)F)C1 [Example 24, 2-{(1′S,3′R)-3′-fluoro-5′-[1-(oxetan-3-yl)-1H-pyrazol-4-yl]-2,5-dioxo-2′,3′-dihydrospiro[imidazolidine-4,1′-inden]-1-yl}-N-[(5-fluoropyridin-2-yl)methyl]-N-[1-methyl-3-(trifluoromethyl)azetidin-3-yl]acetamide]
Solubility (in words) ([4]; pH 2.0 and pH 3.0 buffers): high solubility
Pharmacokinetics (in words) [5]: excellent pharmacokinetics
BA [5]: 47.0%
Inhibitory effect on dopamine receptors (in words) [6]: did not show strong inhibitory activity
Antitumor effect, intravenous administration (in words) [3]: strong antitumor effects
Inhibitory effect on serotonin receptors (in words) [7]: did not show strong inhibitory activity

CN1CC(N(Cc2ccc(F)cc2)C(=O)CN2C(=O)N[C@]3(CCc4cc(-c5cnn(C)c5)ccc43)C2=O)(C(F)(F)F)C1 [Example 12, N-[(4-fluorophenyl)methyl]-2-[(1′S)-5′-(1-methyl-1H-pyrazol-4-yl)-2,5-dioxo-2′,3′-dihydrospiro[imidazolidine-4,1′-inden]-1-yl]-N-[1-methyl-3-(trifluoromethyl)azetidin-3-yl]acetamide]
BA [5]: 30.0%

CN1CC(N(Cc2ccc(F)cn2)C(=O)CN2C(=O)N[C@]3(C[C@@H](F)c4cc(-c5cnn(CC6COC6)c5)ccc43)C2=O)(C(F)(F)F)C1 [Example 25, 2-[(1′S,3′R)-3′-fluoro-5′-{1-[(oxetan-3-yl)methyl]-1H-pyrazol-4-yl}-2,5-dioxo-2′,3′-dihydrospiro[imidazolidine-4,1′-inden]-1-yl]-N-[(5-fluoropyridin-2-yl)methyl]-N-[1-methyl-3-(trifluoromethyl)azetidin-3-yl]acetamide]
Inhibitory effect on dopamine receptors (in words) [6]: did not show strong inhibitory activity
Inhibitory effect on serotonin receptors (in words) [7]: did not show strong inhibitory activity

CNC(=O)Nc1ccc2c(c1)CC[C@@]21OC(=O)N(CC(=O)N2[C@@H](C)CC[C@H]2c2cc(F)c(F)c(F)c2)C1=O [Comparative Example 2, reference compound]
Solubility in pH 3.0 buffer ([4]; 10 mmol/L citrate buffer (pH 3.0), 5° C., overnight): 0.005 mg/mL
Solubility in pH 2.0 buffer ([4]; 10 mmol/L glycine buffer (pH 2.0), 5° C., overnight): 0.004 mg/mL
solubility ([4]; 10 mmol/L citrate buffer (pH 3.0), 5° C., overnight, read-out: Solubility in pH 3.0 buffer): 5 µg/mL (≈ 9.43 µM)
solubility ([4]; 10 mmol/L glycine buffer (pH 2.0), 5° C., overnight, read-out: Solubility in pH 2.0 buffer): 4 µg/mL (≈ 7.54 µM)
inhibition at 10 µM ([6]; 10 μM, CHO-S/hDAT membrane preparation): 88%
Inhibitory effect on dopamine receptors (in words) [6]: strong inhibitory effect
inhibition at 10 µM ([7]; 10 μM, HEK293/hSERT membrane preparation): 76%
Inhibitory effect on serotonin receptors (in words) [7]: strong inhibitory effect

Source: patent US20250263415A1, “TERTIARY AMIDE DERIVATIVES SUBSTITUTED WITH 4-MEMBERED RING STRUCTURE” (Sumitomo Pharma Co., Ltd., priority 2024, published 2025)
